This is an account of results in patent US20260062387A1, “SALT-INDUCIBLE KINASE INHIBITOR COMPOUND AND PHARMACEUTICAL COMPOSITION INCLUDING THE SAME” (MITSUBISHI TANABE PHARMA CORPORATION, priority 2023, published 2026).

Assay type in all cases: biochemical
One test concerns the target GST-tagged SIK2 (Homo sapiens (Human), UniProt Q9H0K1). Description: SIK2 inhibition test (ADP-Glo Max Assay). Conditions: enzyme 3 nM, AMARA Peptide 200 μM, ATP 1 mM, 2 hours room temperature. As for the experimental part:
(§1) The compounds described in Examples above were used in the SIK1, SIK2, and SIK3 inhibition test.
(§2) The inhibitory activity of the compound for SIK1, SIK2, and SIK3 enzymes was assayed by measuring the amount of ADP, an enzyme reaction product, with ADP-Glo™ Max Assay (Promega). Enzymes, specifically, GST-tagged SIK1 (Carna Biosciences, Inc.), GST-tagged SIK2 (Carna Biosciences, Inc.), and GST-tagged SIK3 (SignalChem) were prepared in a reaction buffer (15 mM tris-hydrochloric acid buffer (pH 7.5), 0.001% Triton X-100, 0.01% BSA) so that the final concentration would be 20 nM, 3 nM, and 100 nM. Enzyme solutions were thus formed. In a reaction buffer, AMARA Peptide (SignalChem) as a substrate with a final concentration of 200 μM (SIK1, SIK2) or 100 μM (SIK3), ATP (Promega) with a final concentration of 1 mM, and magnesium chloride with a final concentration of 5 mM were prepared. Substrate solutions were thus formed. The enzyme solution, the substrate solution, and a DMSO solution of a concentration of the test compound were mixed together and reacted at room temperature for 2 hours. After the reaction, ADP-Glo™ Reagent (Promega) was added, and the reaction was performed at room temperature for 30 minutes. Subsequently, ADP-Glo™ Max Detection Reagent (Promega) was added, and the reaction was performed at room temperature for 30 minutes. The emission by the luciferase reaction was measured with PHERAstar FSX (BMG LABTECH).
(§3) The inhibitory ratio (%) was calculated by: % Inhibition={1−(intensity of sample−intensity of blank (no enzyme solution added))/(intensity of control (DMSO alone)−intensity of blank)}×100. The inhibitory concentration IC50 was calculated based on 16 data values obtained in the concentration response test.

The target of another test is GST-tagged SIK1 (Homo sapiens (Human), UniProt P57059). The test can be described thus: SIK1 inhibition test (ADP-Glo Max Assay). Conditions: enzyme 20 nM, AMARA Peptide 200 μM, ATP 1 mM, 2 hours room temperature. As for the experimental part:
as §1, §2, §3
Background: ADP-Glo turns the ADP formed in a reaction into a luminescent signal.

A further test addresses GST-tagged SIK3 (Homo sapiens (Human), UniProt Q9Y2K2). The test can be described thus: SIK3 inhibition test (ADP-Glo Max Assay). Conditions: enzyme 100 nM, AMARA Peptide 100 μM, ATP 1 mM, 2 hours room temperature. The method, then: as §1, §2, §3

As usually defined, the IC50 is the concentration at which inhibition is half-maximal.

GST-tagged SIK2, sequence (Q9H0K1 whole entry): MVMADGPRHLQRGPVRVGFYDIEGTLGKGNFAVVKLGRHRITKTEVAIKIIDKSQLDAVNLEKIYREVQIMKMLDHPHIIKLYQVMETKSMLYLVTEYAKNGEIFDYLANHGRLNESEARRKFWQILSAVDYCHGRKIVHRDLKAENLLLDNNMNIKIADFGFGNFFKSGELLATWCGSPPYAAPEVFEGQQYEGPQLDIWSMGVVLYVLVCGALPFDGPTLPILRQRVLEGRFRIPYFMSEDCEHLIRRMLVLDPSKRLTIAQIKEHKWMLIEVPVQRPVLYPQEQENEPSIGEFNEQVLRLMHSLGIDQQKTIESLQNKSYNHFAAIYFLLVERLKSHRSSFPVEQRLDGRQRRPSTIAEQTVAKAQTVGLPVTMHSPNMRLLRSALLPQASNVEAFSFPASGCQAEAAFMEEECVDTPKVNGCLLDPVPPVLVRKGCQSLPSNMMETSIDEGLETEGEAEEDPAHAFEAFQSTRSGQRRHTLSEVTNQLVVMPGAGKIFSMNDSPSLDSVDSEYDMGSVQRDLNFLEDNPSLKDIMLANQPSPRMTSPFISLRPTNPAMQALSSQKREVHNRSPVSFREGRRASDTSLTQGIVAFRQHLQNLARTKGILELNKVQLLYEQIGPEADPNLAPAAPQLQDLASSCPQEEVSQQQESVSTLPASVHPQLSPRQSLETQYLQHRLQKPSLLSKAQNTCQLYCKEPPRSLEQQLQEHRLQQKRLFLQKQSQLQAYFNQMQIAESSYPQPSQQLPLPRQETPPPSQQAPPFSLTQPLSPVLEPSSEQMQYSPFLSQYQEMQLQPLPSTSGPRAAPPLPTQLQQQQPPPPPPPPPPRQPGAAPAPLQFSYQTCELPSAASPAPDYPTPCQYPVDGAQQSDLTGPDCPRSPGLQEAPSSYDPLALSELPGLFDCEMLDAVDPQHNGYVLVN
GST-tagged SIK3, sequence (Q9Y2K2 whole entry): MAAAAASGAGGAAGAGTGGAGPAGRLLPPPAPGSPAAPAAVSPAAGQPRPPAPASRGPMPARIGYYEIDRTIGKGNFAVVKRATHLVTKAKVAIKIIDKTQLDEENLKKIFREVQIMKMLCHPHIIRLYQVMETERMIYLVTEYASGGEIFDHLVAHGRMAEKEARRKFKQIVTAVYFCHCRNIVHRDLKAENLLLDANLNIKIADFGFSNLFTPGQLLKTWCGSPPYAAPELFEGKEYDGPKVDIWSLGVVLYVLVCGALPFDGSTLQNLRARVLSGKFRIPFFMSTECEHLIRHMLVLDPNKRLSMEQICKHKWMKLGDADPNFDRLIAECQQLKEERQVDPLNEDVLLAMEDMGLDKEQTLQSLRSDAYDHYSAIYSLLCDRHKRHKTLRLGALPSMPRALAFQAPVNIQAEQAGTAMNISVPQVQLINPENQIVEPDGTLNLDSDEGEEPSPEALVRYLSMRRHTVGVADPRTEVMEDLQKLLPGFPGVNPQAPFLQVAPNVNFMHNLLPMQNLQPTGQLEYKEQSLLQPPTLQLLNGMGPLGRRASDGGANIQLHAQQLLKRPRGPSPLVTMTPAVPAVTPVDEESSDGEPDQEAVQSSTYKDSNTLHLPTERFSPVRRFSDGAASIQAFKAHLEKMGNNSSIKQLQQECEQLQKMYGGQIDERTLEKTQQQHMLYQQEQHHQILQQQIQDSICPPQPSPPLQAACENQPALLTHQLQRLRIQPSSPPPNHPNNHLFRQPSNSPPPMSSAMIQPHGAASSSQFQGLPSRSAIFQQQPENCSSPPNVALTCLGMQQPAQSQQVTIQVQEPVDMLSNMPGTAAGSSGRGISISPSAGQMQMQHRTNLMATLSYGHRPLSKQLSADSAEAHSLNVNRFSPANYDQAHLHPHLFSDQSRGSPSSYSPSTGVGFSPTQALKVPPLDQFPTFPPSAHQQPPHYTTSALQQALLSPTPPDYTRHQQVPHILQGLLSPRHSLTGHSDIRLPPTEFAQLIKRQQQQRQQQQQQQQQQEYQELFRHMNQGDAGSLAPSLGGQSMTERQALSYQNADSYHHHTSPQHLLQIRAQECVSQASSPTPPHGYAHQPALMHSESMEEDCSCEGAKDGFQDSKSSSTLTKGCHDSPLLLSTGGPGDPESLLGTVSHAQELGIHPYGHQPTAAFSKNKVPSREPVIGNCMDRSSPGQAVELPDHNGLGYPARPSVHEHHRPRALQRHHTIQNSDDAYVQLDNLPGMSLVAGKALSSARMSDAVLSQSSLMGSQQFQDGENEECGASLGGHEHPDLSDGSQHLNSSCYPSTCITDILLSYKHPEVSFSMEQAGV
GST-tagged SIK1, sequence (P57059 whole entry): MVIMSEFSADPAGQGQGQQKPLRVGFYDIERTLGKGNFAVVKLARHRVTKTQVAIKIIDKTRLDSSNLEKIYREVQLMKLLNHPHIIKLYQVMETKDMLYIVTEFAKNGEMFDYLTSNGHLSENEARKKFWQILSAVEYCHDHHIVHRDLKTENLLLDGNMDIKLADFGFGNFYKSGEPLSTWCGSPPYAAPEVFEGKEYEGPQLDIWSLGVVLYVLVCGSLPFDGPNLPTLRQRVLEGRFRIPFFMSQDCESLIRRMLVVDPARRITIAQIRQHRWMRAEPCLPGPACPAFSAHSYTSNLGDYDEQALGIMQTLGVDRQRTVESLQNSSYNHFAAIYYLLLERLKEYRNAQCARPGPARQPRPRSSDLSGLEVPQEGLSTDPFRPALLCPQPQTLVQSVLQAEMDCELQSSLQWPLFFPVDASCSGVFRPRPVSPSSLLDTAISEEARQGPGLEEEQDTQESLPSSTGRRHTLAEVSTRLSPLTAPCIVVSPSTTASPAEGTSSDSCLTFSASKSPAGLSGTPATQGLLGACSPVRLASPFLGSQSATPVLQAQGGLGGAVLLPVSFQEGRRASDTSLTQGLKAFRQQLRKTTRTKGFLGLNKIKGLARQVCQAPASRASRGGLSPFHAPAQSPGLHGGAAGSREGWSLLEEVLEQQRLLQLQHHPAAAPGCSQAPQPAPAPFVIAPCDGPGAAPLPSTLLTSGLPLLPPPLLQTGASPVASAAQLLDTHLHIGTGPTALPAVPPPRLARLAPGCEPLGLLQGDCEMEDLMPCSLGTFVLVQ

For `COc1cc(-c2c3c(C(F)F)cc(-c4cnn(C[C@H](C)O)c4)cc3nn2C)cc(OC(F)F)c1C(=O)N1CC(O)(C(F)F)C1` [Example 67, [2-(difluoromethoxy)-4-[4-(difluoromethyl)-6-[1-[(2S)-2-hydroxypropyl]pyrazol-4-yl]-2-methylindazol-3-yl]-6-methoxyphenyl]-[3-(difluoromethyl)-3-hydroxyazetidin-1-yl]methanone], the values for the IC50 on GST-tagged SIK2, at GST-tagged SIK1 and against GST-tagged SIK3 were 12.7 nM, 8.5 nM and 4.8 nM, respectively.

For the molecule `COc1cc(-c2c3c(C#N)cc(-c4cnn(CCC(C)(C)O)c4)cc3nn2C)cc(OC(F)F)c1C(=O)N[C@@H]1CC1(F)F` [Example 111, 4-[4-cyano-6-[1-(3-hydroxy-3-methylbutyl)pyrazo]-4-yl]-2-methylindazol-3-yl]-N-[(1R)-2,2-difluoro[cyclopropyl]-2-(difluoromethoxy)-6-methoxybenzamide], the IC50 at GST-tagged SIK2 amounted to 1.7 nM; at GST-tagged SIK1, 6.2 nM; against GST-tagged SIK3, 1.7 nM.

For `COc1cc(-c2c3c(C#N)cc(-c4cnn(CCC5(O)CCC5)c4)cc3nn2C)cc(OC(F)F)c1C(N)=O` [Example 137, 4-[4-cyano-6-[1-[2-(1-hydroxycyclobutyl)ethyl]pyrazol-4-yl]-2-methylindazol-3-yl]-2-(difluoromethoxy)-6-methoxybenzamide], the IC50 against GST-tagged SIK2 came out at 5.8 nM; at GST-tagged SIK1, 11.6 nM; at GST-tagged SIK3, 4.7 nM.

For `COc1cc(-c2c3c(OCc4nnc(C)o4)cc(-c4cnn(C)c4)cc3nn2C)cc(OC(F)F)c1C(=O)N1CC(O)(C(F)(F)F)C1` [Example 53, [2-(difluoromethoxy)-6-methoxy-4-[2-methyl-4-[(5-methyl-1,3,4-oxadiazol-2-yl)methoxy]-6-(1-methylpyrazol-4-yl)indazol-3-yl]phenyl]-[3-hydroxy-3-(trifluoromethyl)azetidin-1-yl]methanone], the IC50 came out at 7.3 nM at GST-tagged SIK2, 9.1 nM against GST-tagged SIK1 and 13.6 nM against GST-tagged SIK3.

For `COc1cc(-c2c3c(C#N)cc(-c4cnn(CCS(C)(=O)=O)c4)cc3nn2C)cc(OC(F)F)c1C(=O)NCC1(F)CC1` [Example 54, 4-[4-cyano-2-methyl-6-[1-(2-methylsulfonylethyl)pyrazol-4-yl]indazol-3-yl]-2-(difluoromethoxy)-N-[(1-fluorocyclopropyl)methyl]-6-methoxybenzamide], the IC50 against GST-tagged SIK2 worked out at 3.2 nM; at GST-tagged SIK1 it was 10.1 nM; at GST-tagged SIK3 it was 5.1 nM.

For `COc1cc(-c2c3c(C#N)cc(-c4cnn(C[C@H](C)O)c4)cc3nn2C)cc2c1C(=O)NCC2(C)C` [Example 144, 6-[1-[(2S)-2-hydroxypropyl]pyrazol-4-yl]-3-(8-methoxy-4,4-dimethyl-1-oxo-2,3-dihydroisoquinolin-6-yl)-2-methylindazole-4-carbonitrile], the half-maximal inhibitory concentration (IC50) came to 3.7 nM against GST-tagged SIK2, 10.1 nM against GST-tagged SIK1 and 7.8 nM at GST-tagged SIK3.

As for `COc1cc(-c2c3c(C#N)cc(-c4cnn(C[C@H](O)C(F)(F)F)c4)cc3nn2C)cc(OC(F)F)c1C(=O)N[C@@H]1CC1(F)F` [Example 124, 4-[4-cyano-2-methyl-6-[1-[(2S)-3,3,3-trifluoro-2-hydroxypropyl]pyrazol-4-yl]indazol-3-yl]-N-[(1R)-2,2-difluorocyclopropyl]-2-(difluoromethoxy)-6-methoxybenzamide], the IC50 against GST-tagged SIK2 stood at 1.1 nM; at GST-tagged SIK1, 8 nM; against GST-tagged SIK3 it was 1.6 nM.

Take `COc1cc(-c2c3c(C#N)cc(-c4cnn(C)c4)cc3nn2C)cc(OC(F)F)c1C(=O)N1CC(OC(F)F)C1` [Example 9, 3-[3-(difluoromethoxy)-4-[3-(difluoromethoxy)azetidine-1-carbonyl]-5-methoxyphenyl]-2-methyl-6-(1-methylpyrazol-4-yl)indazole-4-carbonitrile]: the results for the IC50 on GST-tagged SIK2, against GST-tagged SIK1 and against GST-tagged SIK3 were 12.2 nM, 16.2 nM and 10 nM, respectively.

Consider `COc1cc(-c2cnc3cc(-c4cnn(C)c4)ccn23)cc2c1C(=O)N(C1CC1)CC2` [Comparative Example 3, 2-cyclopropyl-8-methoxy-6-[7-(1-methylpyrazol-4-yl)imidazo[1,2-a]pyridin-3-yl]-3,4-dihydroisoquinolin-1-one, reference compound], for which the IC50 at GST-tagged SIK2 is 22.7 nM; on GST-tagged SIK1, 398 nM; on GST-tagged SIK3, 6.5 nM.

Take `COc1cc(-c2c3c(OCc4ccnnc4)cc(-c4cnn(C)c4)cc3nn2C)cc(OC(F)F)c1C(=O)N1CC(O)(C(F)(F)F)C1` [Example 51, [2-(difluoromethoxy)-6-methoxy-4-[2-methyl-6-(1-methylpyrazol-4-yl)-4-(pyridazin-4-ylmethoxy)indazol-3-yl]phenyl]-[3-hydroxy-3-(trifluoromethyl)azetidin-1-yl]methanone]: the IC50 was found to be 8.9 nM against GST-tagged SIK2, 8.6 nM against GST-tagged SIK1 and 14.1 nM against GST-tagged SIK3.

`COc1cc(-c2c3c(OCc4cccnc4)cc(-c4cnn(C)c4)cc3nn2C)cc(OC(F)F)c1C(=O)N1CC(O)(C(F)(F)F)C1` [Example 34, [2-(difluoromethoxy)-6-methoxy-4-[2-methyl-6-(1-methylpyrazol-4-yl)-4-(pyridin-3-ylmethoxy)indazol-3-yl]phenyl]-[3-hydroxy-3-(trifluoromethyl)azetidin-1-yl]methanone]: the IC50 against GST-tagged SIK2 was found to be 1 nM; at GST-tagged SIK1 it was 0.4 nM; against GST-tagged SIK3, 2.9 nM.

Consider `COc1cc(-c2c3c(C#N)cc(-c4cnn(CCN5CCOCC5)c4)cc3nn2C)cc(OC(F)F)c1C(=O)NC[C@@H]1CC1(F)F` (single isomer, unassigned) [Example 85], for which the IC50 on GST-tagged SIK2 came to 7.1 nM; at GST-tagged SIK1 it was 9.9 nM; at GST-tagged SIK3, 8.6 nM.

With `COc1cc(-c2c3c(OCc4cncc(C#N)c4)cc(-c4cnn(C)c4)cc3nn2C)cc(OC(F)F)c1C(=O)N1CC(O)(C(F)(F)F)C1` [Example 104, 5-[[3-[3-(difluoromethoxy)-4-[3-hydroxy-3-(trifluoromethyl)azetidin-1-carbonyl]-5-methoxyphenyl]-2-methyl-6-(1-methylpyrazol-4-yl)indazol-4-yl]oxymethyl]pyridine-3-carbonitrile], the concentration for half-maximal inhibition (IC50) is 1.8 nM at GST-tagged SIK2, 6.4 nM on GST-tagged SIK1 and 4.8 nM on GST-tagged SIK3.

Turning to `COc1cc(-c2c3c(OCC4CCC4)cc(-c4cnn(C)c4)cc3nn2C)cc(OC(F)F)c1C(=O)N1CC(O)(C(F)(F)F)C1` [Example 27, [4-[4-(cyclobutylmethoxy)-2-methyl-6-(1-methylpyrazol-4-yl)indazol-3-yl]-2-(difluoromethoxy)-6-methoxyphenyl]-[3-hydroxy-3-(trifluoromethyl)azetidin-1-yl]methanone], the results for the 50% inhibitory concentration (IC50) on GST-tagged SIK2, against GST-tagged SIK1 and at GST-tagged SIK3 were 12.7 nM, 13.7 nM and 16 nM, respectively.

As to `COc1cc(-c2c3ccc(OCCN4CCOCC4)cc3nn2C)cc(OC(F)F)c1C(=O)NC1CC1` [Comparative Example 7, N-cyclopropyl-2-(difluoromethoxy)-6-methoxy-4-(2-methyl-6-(2-morpholinoethoxy)-2H-indazol-3-yl)benzamide, reference compound], the figures for the half-inhibitory concentration (IC50) against GST-tagged SIK2, against GST-tagged SIK1 and against GST-tagged SIK3 were 369 nM, 7600 nM and 198 nM, respectively.

On to `COc1cc(-c2c3c(OCc4cnccn4)cc(-c4cnn(C)c4)cc3nn2C)cc(OC(F)F)c1C(=O)N1CC(O)(C(F)(F)F)C1` [Example 48, [2-(difluoromethoxy)-6-methoxy-4-[2-methyl-6-(1-methylpyrazol-4-yl)-4-(pyrazin-2-ylmethoxy)indazol-3-yl]phenyl]-[3-hydroxy-3-(trifluoromethyl)azetidin-1-yl]methanone], for which the results for the IC50 against GST-tagged SIK2, at GST-tagged SIK1 and against GST-tagged SIK3 were 10.6 nM, 3.5 nM and 11.2 nM, respectively.

For the molecule `COc1cc(-c2c3c(OCCO)cc(-c4cnn(C)c4)cc3nn2C)cc(OC(F)F)c1C(N)=O` [Example 145, 2-(difluoromethoxy)-4-[4-(2-hydroxyethoxy)-2-methyl-6-(1-methylpyrazol-4-yl)indazol-3-yl]-6-methoxybenzamide], the IC50 was 1.8 nM on GST-tagged SIK2, 10.3 nM at GST-tagged SIK1 and 19.1 nM on GST-tagged SIK3.

As to `COc1cc(-c2c3c(OC(F)F)cc(-c4cnn(C)c4)cc3nn2C)cc(OC(F)F)c1C(N)=O` [Example 131, 2-(difluoromethoxy)-4-[4-(difluoromethoxy)-2-methyl-6-(1-methylpyrazol-4-yl)indazol-3-yl]-6-methoxybenzamide], the values for the IC50 at GST-tagged SIK2, against GST-tagged SIK1 and against GST-tagged SIK3 were 4.5 nM, 12.2 nM and 16.3 nM, respectively.

Turning to `C[C@H]1CNC(=O)c2c(OC(F)F)cc(-c3c4c(C#N)cc(-c5cnn(C)c5)cc4nn3C)cc21` (single isomer, unassigned) [Example 181], the IC50 at GST-tagged SIK2 amounted to 6.1 nM; at GST-tagged SIK1, 19.4 nM; at GST-tagged SIK3 it was 3.5 nM.
